Measured values reported in PMC4393269, “Carvacrol Codrugs: A New Approach in the Antimicrobial Plan” (PLoS ONE, 2015).

Key:
Test in all cases: Antibiofilm assay on established biofilm (BIC/BEC)
Assay type in all cases: cell-based
C. albicans ATCC 10231 = tested on: C. albicans ATCC 10231
Procedure: (§1) The efficacy on established biofilm was evaluated by determining Biofilm Inhibitory Concentration (BIC) and Biofilm Eradication Concentration (BEC) according to the method described by Johnson et al. with some modifications. Bacterial suspensions, grown in Tryptic soy broth supplemented with 0.5% (v/v) glucose at logarithmic phase, as well as C. albicans grown in RPMI 1640 plus 2% glucose, were incubated on flat-bottomed microtiter plates at a concentration of 5 x 10^5 CFU/mL. After 24 h of incubation at 37°C, the planktonic cells were gently removed and wells were washed with sterile phosphate-buffered saline solution (PBS) pH 7.3 and filled with carvacrol, carvacrol codrug 4, Ac-Cys(Allyl)-OH with dilutions ranging from the MIC values to a maximum concentration of 50 mg/mL. The OD600 was measured at time 0 and after incubation for 24 h at 37°C. The BIC values were determined as the lowest concentrations where no growth occurred in the supernatant fluid, confirmed by no increase in optical density compared with the initial reading. The BEC values were determined as the lowest concentrations at which no bacterial growth occurred on Tryptic soy agar for bacteria and on Sabouraud agar for C. albicans. Data were obtained from at least three independent experiments performed in duplicate.

E. coli ATCC 8739 = tested on: E. coli ATCC 8739
Procedure: as §1

P. aeruginosa ATCC 9027 = tested on: P. aeruginosa ATCC 9027
Procedure: as §1

S. aureus ATCC 29213 = S. aureus ATCC 29213 established biofilm
Procedure: as §1

[1] = tested on: S. epidermidis ATCC 35984
Procedure: as §1

**Q.** Which “BEC as multiple of MIC” value (C. albicans ATCC 10231; C. albicans ATCC 10231) does the source give for `C=CCSC[C@H](NC(C)=O)C(=O)Oc1cc(C(C)C)ccc1C` [codrug 4, N-Ac-Cys(Allyl)-CAR] here?
**A.** Its value is 8MIC.

**Q.** And the “BIC as multiple of MIC” value (C. albicans ATCC 10231; C. albicans ATCC 10231)?
**A.** Its value is 8MIC.

**Q.** What about the BEC (C. albicans ATCC 10231; C. albicans ATCC 10231 established biofilm) of the same compound?
**A.** The BEC was 10 mg/mL.

**Q.** And the BIC (C. albicans ATCC 10231; C. albicans ATCC 10231 established biofilm, 24 h)?
**A.** Its BIC is 10 mg/mL.

**Q.** What about the “BEC as multiple of MIC” value (E. coli ATCC 8739; E. coli ATCC 8739) of the same compound?
**A.** The value was 16MIC.

**Q.** What about the “BIC as multiple of MIC” value (E. coli ATCC 8739; E. coli ATCC 8739) of the same compound?
**A.** Its value is 8MIC.

**Q.** And the BEC (E. coli ATCC 8739; E. coli ATCC 8739 established biofilm)?
**A.** The BEC was 40 mg/mL.

**Q.** And the BIC (E. coli ATCC 8739; E. coli ATCC 8739 established biofilm, 24 h)?
**A.** The BIC was 20 mg/mL.

**Q.** And the “BEC as multiple of MIC” value (P. aeruginosa ATCC 9027; P. aeruginosa ATCC 9027)?
**A.** The value was 2MIC.

**Q.** And the BEC (P. aeruginosa ATCC 9027; P. aeruginosa ATCC 9027 established biofilm)?
**A.** Its BEC is 10 mg/mL.

**Q.** And the BIC (P. aeruginosa ATCC 9027; P. aeruginosa ATCC 9027 established biofilm, 24 h)?
**A.** The BIC was 5 mg/mL.

**Q.** What about the BEC (S. aureus ATCC 29213) of the same compound?
**A.** The BEC was 10 mg/mL.

**Q.** What about the BIC (S. aureus ATCC 29213; 24 h) of the same compound?
**A.** The BIC was 5 mg/mL.

**Q.** What about the “BEC as multiple of MIC” value ([1]; S. epidermidis ATCC 35984) of the same compound?
**A.** The value was 8MIC.

**Q.** And the “BIC as multiple of MIC” value ([1]; S. epidermidis ATCC 35984)?
**A.** The value was 2MIC.

**Q.** And the BEC ([1]; S. epidermidis ATCC 35984 established biofilm)?
**A.** The BEC was 20 mg/mL.

**Q.** And the BIC ([1]; S. epidermidis ATCC 35984 established biofilm, 24 h)?
**A.** Its BIC is 5 mg/mL.
